Laboratory results: the NIST ThermoML archive (doi:10.1016/j.fluid.2017.06.019)

Conditions: Coaxial cylinder method

CCC [propane]
thermal conductivity [W/m/K]
Conditions | 366.45 K | 367.32 K
4010 kPa, Gas | – | 0.04654
4012 kPa, Gas | – | 0.04665
4013 kPa, Liquid | 0.1345 | –
4014 kPa, Gas | – | 0.04687
4014 kPa, Liquid | 0.132 | –
4015 kPa, Liquid | 0.1298 | –
4016 kPa, Liquid | 0.127 | –
4017 kPa, Liquid | 0.1241 | –
4018 kPa, Liquid | 0.1223 | –
4019 kPa, Liquid | 0.1202 | –
4020 kPa, Liquid | 0.1175 | –
4021 kPa, Liquid | 0.1145 | –
4022 kPa, Liquid | 0.1126 | –
4023 kPa, Liquid | 0.1108 | –
4024 kPa, Liquid | 0.1089 | –
4025 kPa, Gas | – | 0.04792
4025 kPa, Liquid | 0.107 | –
4026 kPa, Gas | – | 0.05076
4026 kPa, Liquid | 0.1052 | –
4027 kPa, Gas | – | 0.05394
4027 kPa, Liquid | 0.1035 | –
4028 kPa, Gas | – | 0.05642
4028 kPa, Liquid | 0.1018 | –
4029 kPa, Gas | – | 0.05957
4029 kPa, Liquid | 0.1003 | –
4030 kPa, Gas | – | 0.06288
4030 kPa, Liquid | 0.09876 | –
4031 kPa, Gas | – | 0.06655
4031 kPa, Liquid | 0.09718 | –
4032 kPa, Gas | – | 0.06997
4032 kPa, Liquid | 0.09578 | –
4033 kPa, Gas | – | 0.07414
4033 kPa, Liquid | 0.09438 | –
4034 kPa, Gas | – | 0.07824
4034 kPa, Liquid | 0.0931 | –
4035 kPa, Gas | – | 0.08231
4035 kPa, Liquid | 0.09185 | –
4036 kPa, Gas | – | 0.08718
4036 kPa, Liquid | 0.09064 | –
4037 kPa, Gas | – | 0.09169
4037 kPa, Liquid | 0.08946 | –
4038 kPa, Gas | – | 0.09661
4038 kPa, Liquid | 0.0883 | –
4039 kPa, Gas | – | 0.1018
4039 kPa, Liquid | 0.08718 | –
4040 kPa, Gas | – | 0.1068
4040 kPa, Liquid | 0.08608 | –
4041 kPa, Gas | – | 0.1118
4042 kPa, Gas | – | 0.1171
4043 kPa, Gas | – | 0.1226
4044 kPa, Gas | – | 0.1282
4045 kPa, Gas | – | 0.134
4045 kPa, Liquid | 0.08137 | –
4046 kPa, Gas | – | 0.1397
4047 kPa, Gas | – | 0.145
4048 kPa, Gas | – | 0.1514
4050 kPa, Gas | – | 0.1645
4050 kPa, Liquid | 0.0775 | –
4051 kPa, Gas | – | 0.1714
4052 kPa, Gas | – | 0.1781
4053 kPa, Gas | – | 0.1856
4054 kPa, Gas | – | 0.1925
4055 kPa, Gas | – | 0.1998
4055 kPa, Liquid | 0.07438 | –
4056 kPa, Gas | – | 0.2078
4057 kPa, Gas | – | 0.2153
4057 kPa, Liquid | 0.07324 | –
4058 kPa, Gas | – | 0.2233
4059 kPa, Gas | – | 0.2315
4060 kPa, Liquid | – | 0.2315
4061 kPa, Liquid | – | 0.2164
4062 kPa, Liquid | – | 0.2079
4063 kPa, Liquid | – | 0.1998
4064 kPa, Liquid | – | 0.1925
4065 kPa, Liquid | 0.06968 | 0.1857
4070 kPa, Liquid | 0.06809 | –
4075 kPa, Liquid | 0.0668 | –
4080 kPa, Liquid | 0.0658 | –
4085 kPa, Liquid | 0.06508 | –
4090 kPa, Liquid | 0.06449 | –
4095 kPa, Liquid | 0.06445 | –
4100 kPa, Liquid | 0.06429 | –
4105 kPa, Liquid | 0.06425 | –
4110 kPa, Liquid | 0.06421 | –
4115 kPa, Liquid | 0.06418 | –
4120 kPa, Liquid | 0.06414 | –
4125 kPa, Liquid | 0.0641 | –
4130 kPa, Liquid | 0.06408 | –
4140 kPa, Liquid | 0.06408 | –
4150 kPa, Liquid | 0.06404 | –
4160 kPa, Liquid | 0.064 | –
4170 kPa, Liquid | 0.06396 | –
4180 kPa, Liquid | 0.06392 | –
4190 kPa, Liquid | 0.06394 | –
4200 kPa, Liquid | 0.06392 | –
4210 kPa, Liquid | 0.06392 | –
4220 kPa, Liquid | 0.06388 | –
4230 kPa, Liquid | 0.06388 | –
4240 kPa, Liquid | 0.06387 | –
4250 kPa, Liquid | 0.06387 | –
4260 kPa, Liquid | 0.0639 | –
4270 kPa, Liquid | 0.0639 | –
4280 kPa, Liquid | 0.0639 | –
4290 kPa, Liquid | 0.0639 | –
4300 kPa, Liquid | 0.06392 | –
4330 kPa, Liquid | 0.06396 | –
4400 kPa, Liquid | 0.0641 | –
4410 kPa, Liquid | 0.06416 | –
4477 kPa, Liquid | 0.06435 | –
4491 kPa, Liquid | 0.06439 | –
